The values that follow come from patent publication US11440913B2, “Aminoimidazopyridazines as kinase inhibitors” (BRISTOL-MYERS SQUIBB COMPANY, priority 2017, dated 2022).

Structures can show the parent of a compound that is named as a salt. Where two headings read alike, the source gives them in different places.

In test [1] the target is His-GST-TVMV-hRIPK1(1-324) (Homo sapiens (Human), UniProt Q13546). In words: RIPK1 HTRF Binding Assay. To be noted: HTRF binding, 1 h at rt; read-out: RIPK1 (IC50). Summed up: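 HTRF probe-displacement binding: 1 nM His-GST-TVMV-hRIPK1(1-324) (baculovirus construct), 90.6 nM probe, 0.2 nM anti-GST-Tb in 20 mM HEPES, 10 mM MgCl2, 0.015% Brij-35, 4 mM DTT, 0.05 mg/mL BSA. Incubated 1 h at rt; FRET 520/495 nm ratio, inhibition relative to DMSO-only wells.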
On the technique in general: In TR-FRET formats the signal depends on donor and acceptor labels being close together.

Test [2] relates to MLKL phosphorylation in HT29-L23 human colorectal adenocarcinoma cells. Briefly: MLKL Phosphorylation High-Content Assay. It is filed as cell-based. As to conditions: 6 h, necroptosis induced with TNFα, SMAC mimetic and Z-VAD, read-out: pMLKL (IC50). The method in brief:
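HT29-L23 cells pretreated 30 min at 37 °C with compound (6.25 to 0.106 μM final), then necroptosis induced with TNFα 35 ng/mL, SMAC mimetic 700 nM and Z-VAD 140 nM for 6 h. Fixed cells immunostained for MLKL pS358 and imaged; IC50 and Ymax from 4-parameter logistic fit.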

His-GST-TVMV-hRIPK1(1-324), sequence (Q13546 1-324): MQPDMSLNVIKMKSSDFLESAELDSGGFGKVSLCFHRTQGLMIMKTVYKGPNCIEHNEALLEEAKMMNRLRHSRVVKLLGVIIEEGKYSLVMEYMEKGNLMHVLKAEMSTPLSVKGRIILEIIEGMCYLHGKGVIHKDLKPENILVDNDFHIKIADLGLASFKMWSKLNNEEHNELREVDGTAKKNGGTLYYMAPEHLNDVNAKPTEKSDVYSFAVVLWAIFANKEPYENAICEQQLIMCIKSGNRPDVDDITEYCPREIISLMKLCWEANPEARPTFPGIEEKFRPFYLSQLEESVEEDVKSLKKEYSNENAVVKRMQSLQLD

Turning to `COc1ncc(-c2ccc3nc(NC(=O)CC#N)cn3n2)cc1C(=O)NCc1cc(OC(F)(F)F)ccc1F` [Example 33, 5-[2-(2-cyanoacetamido)imidazo[1,2-b]pyridazin-6-yl]-N-{[2-fluoro-5-(trifluoromethoxy)phenyl]methyl}-2-methoxypyridine-3-carboxamide], the 50% inhibitory concentration (IC50) (usually the concentration that gives 50% inhibition) amounted to 186 nM in test [1] and 183 nM in test [2] (Homo sapiens).

Turning to `COc1ncc(-c2ccc3nc(NC(=O)CO)cn3n2)cc1C(=O)NCc1cc(C(F)(F)F)ccc1F` [Example 34, N-{[2-fluoro-5-(trifluoromethyl)phenyl]methyl}-5-[2-(2-hydroxyacetamido)imidazo[1,2-b]pyridazin-6-yl]-2-methoxypyridine-3-carboxamide], the results for the IC50 in test [1] and in test [2] (Homo sapiens) were 96 nM and 215 nM, respectively.

For `COc1ncc(-c2ccc3nc(NC(=O)CO)cn3n2)cc1C(=O)NCc1cc(OC(F)(F)F)ccc1F` [Example 35, N-{[2-fluoro-5-(trifluoromethoxy)phenyl]methyl}-5-[2-(2-hydroxyacetamido)imidazo[1,2-b]pyridazin-6-yl]-2-methoxypyridine-3-carboxamide], the 50% inhibitory concentration (IC50) turned out to be 25 nM in test [1] and 130 nM in test [2] (Homo sapiens).

Regarding `COc1ncc(-c2ccc3nc(NC(=O)C(C)(C)O)cn3n2)cc1C(=O)NCc1cc(OC(F)(F)F)ccc1F` [Example 36, N-{[2-fluoro-5-(trifluoromethoxy)phenyl]methyl}-5-[2-(2-hydroxy-2-methylpropanamido)imidazo[1,2-b]pyridazin-6-yl]-2-methoxypyridine-3-carboxamide], the results for the IC50 in test [1] and in test [2] (Homo sapiens) were 48 nM and 92 nM, respectively.

As to `COc1ccc(F)c(CNC(=O)c2cc(-c3ccc4nc(NC(C)=O)cn4n3)c(C)nc2C)c1` [Example 37, 5-(2-acetamidoimidazo[1,2-b]pyridazin-6-yl)-N-(2-fluoro-5-methoxybenzyl)-2,6-dimethylnicotinamide], the IC50 in test [1] came to 67 nM; in test [2] (Homo sapiens), 208 nM.

As to `Cc1nc(C)c(-c2ccc3nc(NC(=O)CO)cn3n2)cc1C(=O)NCc1cc(OC(F)(F)F)ccc1F` [Example 38, N-(2-fluoro-5-(trifluoromethoxy)benzyl)-5-(2-(2-hydroxyacetamido)imidazo[1,2-b]pyridazin-6-yl)-2,6-dimethylnicotinamide], the IC50 amounted to 13 nM in test [1] and 34 nM in test [2] (Homo sapiens).

As for `Cc1ncc(-c2ccc3nc(NC(=O)CO)cn3n2)cc1C(=O)NCc1cc(OC(F)(F)F)ccc1F` [Example 39, N-{[2-fluoro-5-(trifluoromethoxy)phenyl]methyl}-5-[2-(2-hydroxyacetamido)imidazo[1,2-b]pyridazin-6-yl]-2-methylpyridine-3-carboxamide], the IC50 was 55 nM in test [1] and 119 nM in test [2] (Homo sapiens).

As to `[2H]C([2H])([2H])Oc1ncc(-c2ccc3nc(NC(C)=O)cn3n2)cc1C(=O)NCc1cc(OC)ccc1F` [Example 40, 5-{2-acetamidoimidazo[1,2-b]pyridazin-6-yl}-N-[(2-fluoro-5-methoxyphenyl)methyl]-2-(D3)methoxypyridine-3-carboxamide], the IC50 was determined as 125 nM in test [1] and 265 nM in test [2] (Homo sapiens).

For the molecule `[2H]C([2H])([2H])Oc1ncc(-c2ccc3nc(NC(C)=O)cn3n2)cc1C(=O)N[C@@H](C)c1cc(OC(F)(F)F)ccc1F` [Example 41, 5-{2-acetamidoimidazo[1,2-b]pyridazin-6-yl}-N-[(1S)-1-[2-fluoro-5-(trifluoromethoxy)phenyl]ethyl]-2-(D3)methoxypyridine-3-carboxamide], the IC50 in test [1] was 63 nM; in test [2] (Homo sapiens), 78 nM.

With `[2H]C([2H])([2H])Oc1ncc(-c2ccc3nc(NC(C)=O)cn3n2)cc1C(=O)NCc1c(F)cccc1OCC(F)(F)F` [Example 42, 5-{2-acetamidoimidazo[1,2-b]pyridazin-6-yl}-N-{[2-fluoro-6-(2,2,2-trifluoroethoxy)phenyl]methyl}-2-(D3)methoxypyridine-3-carboxamide], the results for the IC50 in test [1] and in test [2] (Homo sapiens) were 11 nM and 13 nM, respectively.

For `[2H]C([2H])([2H])Oc1ncc(-c2ccc3nc(NC(C)=O)cn3n2)cc1C(=O)NCc1cc(F)cc(F)c1OC1CCCOC1` (stereo not shown) [Example 43, N-{[3,5-difluoro-2-(oxan-3-yloxy)phenyl]methyl}-5-{2-acetamidoimidazo[1,2-b]pyridazin-6-yl}-2-(D3)methoxypyridine-3-carboxamide], the half-inhibitory concentration (IC50) was found to be 10 nM in test [1] and 28 nM in test [2] (Homo sapiens).

In the case of `[2H]C([2H])([2H])Oc1ncc(-c2ccc3nc(NC(C)=O)cn3n2)cc1C(=O)NCc1cc(F)cc(F)c1O[C@@H]1CCOC1` [Example 44, N-({3,5-difluoro-2-[(3R)-oxolan-3-yloxy]phenyl}methyl)-5-{2-acetamidoimidazo[1,2-b]pyridazin-6-yl}-2-(D3)methoxypyridine-3-carboxamide], the results for the IC50 in test [1] and in test [2] (Homo sapiens) were 17 nM and 71 nM, respectively.

Turning to `[2H]C([2H])([2H])Oc1ncc(-c2ccc3nc(NC(C)=O)cn3n2)cc1C(=O)NC([2H])([2H])c1cc(F)cc(F)c1OC1CCOCC1` [Example 46, N-{[3,5-difluoro-2-(oxan-4-yloxy)phenyl](deutero)methyl}-5-{2-acetamidoimidazo[1,2-b]pyridazin-6-yl}-2-(D3)methoxypyridine-3-carboxamide], the IC50 in test [1] came to 2 nM; in test [2] (Homo sapiens), 1 nM.

On to `[2H]C([2H])([2H])Oc1ncc(-c2ccc3nc(NC(C)=O)cn3n2)cc1C(=O)N[C@H](C)c1cc(OC(F)(F)F)ccc1F` [Example 47, 5-{2-acetamidoimidazo[1,2-b]pyridazin-6-yl}-N-[(1R)-1-[2-fluoro-5-(trifluoromethoxy)phenyl]ethyl]-2-(D3)methoxypyridine-3-carboxamide], for which the IC50 in test [1] stood at 161 nM; in test [2] (Homo sapiens), 85 nM.

For the molecule `[2H]C([2H])([2H])Oc1ncc(-c2ccc3nc(NC(C)=O)cn3n2)cc1C(=O)NCc1cc(F)cc(F)c1OC1COC1` [Example 48, N-{[3,5-difluoro-2-(oxetan-3-yloxy)phenyl]methyl}-5-{2-acetamidoimidazo[1,2-b]pyridazin-6-yl}-2-(D3)methoxypyridine-3-carboxamide], the half-inhibitory concentration (IC50) in test [1] was 10 nM; in test [2] (Homo sapiens), 87 nM.

Turning to `[2H]C([2H])([2H])Oc1ncc(-c2ccc3nc(NC(C)=O)cn3n2)cc1C(=O)NCc1cc(F)cc(F)c1OC([2H])([2H])C1CC1` [Example 49, N-({2-[cyclopropyl(deutero)methoxy]-3,5-difluorophenyl}methyl)-5-{2-acetamidoimidazo[1,2-b]pyridazin-6-yl}-2-(D3)methoxypyridine-3-carboxamide], the values for the IC50 in test [1] and in test [2] (Homo sapiens) were 3 nM and 5 nM, respectively.

As to `[2H]C([2H])([2H])Oc1ncc(-c2ccc3nc(NC(C)=O)cn3n2)cc1C(=O)NCc1cc(F)cc(F)c1OC1CCOCC1` [Example 50, N-{[3,5-difluoro-2-(oxan-4-yloxy)phenyl]methyl}-5-{2-acetamidoimidazo[1,2-b]pyridazin-6-yl}-2-(D3)methoxypyridine-3-carboxamide], the IC50 in test [1] and in test [2] (Homo sapiens) was 2 nM in each case.

As to `[2H]C([2H])([2H])Oc1ncc(-c2ccc3nc(NC(C)=O)cn3n2)cc1C(=O)NC(C)c1cc(C(F)(F)F)ccc1F` (stereo not shown) [Example 51, 5-{2-acetamidoimidazo[1,2-b]pyridazin-6-yl}-N-{1-[2-fluoro-5-(trifluoromethyl)phenyl]ethyl}-2-(D3)methoxypyridine-3-carboxamide], the IC50 worked out at 63 nM in test [1] and 200 nM in test [2] (Homo sapiens).

Turning to `[2H]C([2H])([2H])Oc1ncc(-c2ccc3nc(NC(C)=O)cn3n2)cc1C(=O)NC(C)c1cc(C(F)(F)F)ccc1F` (stereo not shown) [Example 52, 5-{2-acetamidoimidazo[1,2-b]pyridazin-6-yl}-N-{1-[2-fluoro-5-(trifluoromethyl)phenyl]ethyl}-2-(D3)methoxypyridine-3-carboxamide], the results for the IC50 in test [1] and in test [2] were 65 nM and 185 nM, respectively.

In the case of `[2H]C([2H])([2H])Oc1ncc(-c2ccc3nc(NC(C)=O)cn3n2)cc1C(=O)NCc1ccc(F)c(F)c1OCC1CC1` [Example 53, N-{[2-(cyclopropylmethoxy)-3,4-difluorophenyl]methyl}-5-{2-acetamidoimidazo[1,2-b]pyridazin-6-yl}-2-(D3)methoxypyridine-3-carboxamide], the IC50 was 62 nM in test [1] and 81 nM in test [2] (Homo sapiens).

As to `[2H]C([2H])([2H])Oc1ncc(-c2ccc3nc(NC(C)=O)cn3n2)cc1C(=O)NC(C)c1ccccc1OC(F)(F)F` (stereo not shown) [Example 54, 5-{2-acetamidoimidazo[1,2-b]pyridazin-6-yl}-2-(D3)methoxy-N-{1-[2-(trifluoromethoxy)phenyl]eth-yl}pyridine-3-carboxamide], the values for the IC50 in test [1] and in test [2] (Homo sapiens) were 5 nM and 24 nM, respectively.

For the molecule `[2H]C([2H])([2H])Oc1ncc(-c2ccc3nc(NC(C)=O)cn3n2)cc1C(=O)NCc1cc(F)cc(F)c1OCC1CC1` [Example 55, N-{[2-(cyclopropylmethoxy)-3,5-difluorophenyl]methyl}-5-{2-acetamidoimidazo[1,2-b]pyridazin-6-yl}-2-(D3)methoxypyridine-3-carboxamide, TFA], the IC50 was found to be 1 nM in test [1] and 3 nM in test [2] (Homo sapiens).

On to `[2H]C([2H])([2H])Oc1ncc(-c2ccc3nc(NC(C)=O)cn3n2)cc1C(=O)NCc1cc(OCC2CC2)ccc1F` [Example 56, N-{[5-(cyclopropylmethoxy)-2-fluorophenyl]methyl}-5-{2-acetamidoimidazo[1,2-b]pyri-dazin-6-yl}-2-(D3)methoxypyridine-3-carboxamide, TFA], for which the figures for the IC50 in test [1] and in test [2] (Homo sapiens) were 13 nM and 67 nM, respectively.
